Measurements taken from US20210196714A1, “COMPOSITIONS AND METHODS FOR TREATING DISORDERS CHARACTERIZED WITH ABERRANT RAS/MAPK SIGNALING” (Duke University, priority 2018, published 2021).
“Also recorded” adds a separate entry of the source.

Tests used:
[1] = tested on: zebrafish kmt2d morphants; assay: Jaw defect (MK-CH cartilage distance, Alcian blue) in kmt2d morphants; assay type: in vivo; conditions: for jaw defect, distance between MK and CH cartilages: 100 nM, 5 dpf
Description: To test the first criterion, the CE rescue paradigm was repeated four times by two different investigators, each using independent zebrafish adult stocks.
Morpholinos (MO) were obtained from Gene Tools (Gene Tools, LLC, Philomath, Oreg., USA) and have been described previously (see, Bogershausen, N. et al. J Clin Invest 125, 3585-99 (2015)); kmt2d-MO: 5′-[…]-3′(SEQ ID NO: 1) (5 ng); kdm6a-MO: 5′-[…] (SEQ ID NO: 2) (10 ng). kmt2d-MO and kdm6a-MO was injected into wild type (WT) Ekkwill (EK) zebrafish embryos obtained from natural matings at the 1-4 cell stage. CRISPR target sequences (rap1a: 5′-[…]-3′ (SEQ ID NO: 3) [120 pg], rap1b: 5′-[…]-3′ (SEQ ID NO: 4) [120 pg] (see, Bogershausen, N. et al. J Clin Invest 125, 3585-99 (2015)), and kmt2d: 5′-[…] (SEQ ID NO: 5) [50 pg]) were identified by crispr.mit.edu and cloned into pT7-gRNA (Addgene, Cambridge, USA) following the protocol described in http://www.addgene.org/crispr/Chen/. Guide (g)RNAs were synthesized using the T7 MEGAshortscript kit (ThermoFisher Scientific). An injection solution of gRNA plus 100 pg Cas9 protein (PNA Bio) was injected into wild type Ekkwill (EK) zebrafish embryos obtained from natural matings at the 1-cell stage. Embryos were treated with compound at the 8-cell stage. All compounds were dissolved in dimethyl sulfoxide (DMSO; 10 mM), and subsequently diluted with water to 100 μM. Using egg water, we then diluted the 100 μM solution to the concentration specific to each experiment in egg water. Embryos were incubated at 28.5° C. and egg water containing compound was replaced daily until phenotyping, mass spectrometry, or immunoblotting analysis.
For convergence and extension (CE) phenotyping, embryos were scored as described (see, Leitch, C. C. et al. Nat Genet 40, 443-8 (2008)) at the 8-10 somite stage, and images were captured using an AZ100 microscope and NIS Elements software (Nikon). To assess mandibular phenotypes, Alcian blue staining was used to stain cartilage structures in 5 dpf larvae as described (see, Chassaing, N. et al. J Med Genet 49, 373-9 (2012)). Stained larvae were imaged in glycerol using an SMZ745T stereomicroscope (Nikon). The distance between Meckel's (MK) and ceratohyal (CH) cartilages was measured on ventral bright field images with Image J (NIH). For brain cell proliferation assays, injected embryos were fixed in Dent's solution at 2 dpf. […] Fluorescence signal on embryo heads was imaged with the Nikon AZ100 microscope and DS-Qi1MC digital camera using […] Z-stacks to generate extended depth of focus images. Cell numbers were quantified using the ImageJ ICTN plugin (NIH). […]

[2] = tested on: zebrafish kmt2d morphants; assay: Rescue of convergent-extension (CE) phenotype in kmt2d morphants; assay type: in vivo; conditions: 100 nM; for rescue of CE defects, repeated experiments: repeated four times by two investigators; for proportion of embryos showing CE defects vs vehicle (DMSO): primary screen, kmt2d-MO, 8-10 somite stage
Description: FIG. 1: In vivo screen using BRAF/MEK/ERK inhibitors. (a) Flow chart of the experimental design. We started the screening with 29 compounds (27 active BRAF/MEK/ERK inhibitors, and 2 negative controls). 26 compounds passed the solubility test and 24 of those passed the toxicity test. For the primary screen, 24 compounds were assessed for their ability to rescue the convergent-extension (CE) phenotype of zebrafish kmt2d morphants, followed by rescue tests of additional phenotypes (jaw and brain) within the kmt2d morphant, or CE of additional genetic KS models. (b) Toxicity results. Twenty embryos at the 8-cell stage were incubated in egg water containing 100 nM, 1 μM, and 10 μM of the 26 compounds. After 24 hours, larvae were scored for toxicity. Black bar: death; grey bar: abnormal morphology; white bar: nontoxic. (c) Embryos were injected with kmt2d-MO at the 2-4 cell stage and soaked in egg water containing 100 nM of each compound at the 8-cell stage. After 24 hours, larvae were scored for CE. […] The efficacy of each compound was determined by a chi-square test in which Class I and Class II were considered together. Note that the compounds were tested in two groups (compounds 1-19 and compounds 20-29), each with its own set of controls.
This library was screened against validated transient suppression reagent for kmt2d. Experiments injected kmt2d-morpholino (MO) into one- to two-cell-stage embryos and soaked them in egg water containing 100 nM of each compound approximately one hour after injection (eight-cell stage).
Morpholinos (MO) were obtained from Gene Tools (Gene Tools, LLC, Philomath, Oreg., USA) and have been described previously (see, Bogershausen, N. et al. J Clin Invest 125, 3585-99 (2015)); kmt2d-MO: 5′-[…]-3′(SEQ ID NO: 1) (5 ng); kdm6a-MO: 5′-[…] (SEQ ID NO: 2) (10 ng). kmt2d-MO and kdm6a-MO was injected into wild type (WT) Ekkwill (EK) zebrafish embryos obtained from natural matings at the 1-4 cell stage. CRISPR target sequences (rap1a: 5′-[…]-3′ (SEQ ID NO: 3) [120 pg], rap1b: 5′-[…]-3′ (SEQ ID NO: 4) [120 pg] (see, Bogershausen, N. et al. J Clin Invest 125, 3585-99 (2015)), and kmt2d: 5′-[…] (SEQ ID NO: 5) [50 pg]) were identified by crispr.mit.edu and cloned into pT7-gRNA (Addgene, Cambridge, USA) following the protocol described in http://www.addgene.org/crispr/Chen/. Guide (g)RNAs were synthesized using the T7 MEGAshortscript kit (ThermoFisher Scientific). […]
For convergence and extension (CE) phenotyping, embryos were scored as described (see, Leitch, C. C. et al. Nat Genet 40, 443-8 (2008)) at the 8-10 somite stage, and images were captured using an AZ100 microscope and NIS Elements software (Nikon). […] The distance between Meckel's (MK) and ceratohyal (CH) cartilages was measured on ventral bright field images with Image J (NIH). […]

Compound	jaw defect, distance between MK and CH cartilages [1]	rescue of CE defects, repeated experiments [2]	proportion of embryos showing CE defects vs vehicle (DMSO) [2]	jaw defect, distance between MK and CH cartilages ([1]; listed as dmDf)	jaw rescue at dosages beyond 100 nM ([1]; dose response, above 100 nM up to 1 μM)
CC[C@@H](CO)Nc1ncc(C)c(-c2c[nH]c(C(=O)N[C@H](CO)c3cccc(Cl)c3)c2)n1 [Compound 2, N-((S)-1-(3-chlorophenyl)-2-hydroxyethyl)-4-(2-(((S)-1-hydroxybutan-2-yl)amino)-5-methylpyrimidin-4-yl)-1H-pyrrole-2-carboxamide]	ameliorates this defect; also recorded: rescue significantly	rescue CE defects; also recorded: consistent and significant rescue	decreased the proportion of embryos showing CE defects	–	–
CC(C)c1nc(-c2cccc(NS(=O)(=O)c3c(F)cccc3F)c2F)c(-c2ccnc(N)n2)s1 [Compound 8, desmethyl-Dabrafenib]	ameliorates this defect; also recorded: rescue significantly	rescue CE defects; also recorded: consistent and significant rescue	decreased the proportion of embryos showing CE defects	able to rescue the jaw layout	higher dosages did not improve efficacy any further
